# Key:
# NOD mice = experiment: Regeneration of beta cells in NOD mice (pancreatic histology); format: in vivo, mouse; conditions: NOD mice of 4 weeks old, 50 mg/kg for 4 weeks (5 days/7)
# Excerpt: NOD (non-obese diabetes) mice is an experimental model of spontaneous resembling human Type I (insulin-dependent) diabetes, which results from the progressive islet invasion and beta cells destruction by autoreactive T cells. This spontaneous diabetes model offers a unique opportunity of studying the autoreactive T cells involved in the process of beta cell destruction and of settling preventive strategies before clinical onset of the disease. Non fasted mice were killed two days after the last administration of compounds. Pancreatic glands were excised and processed for conventional histological studies after fixation in Bouin's alcoholic solution. Five μm sections were stained with haematoxylin-eosin as described previously by Thivolet C. H. et al., 1991, Diabetologia, 34, 314-319. NOD mice of 4 weeks old have been treated for 4 weeks (5 days/7) with vehicle or GW3965 at 50 mg/kg. Pancreatic histological studies have been carried out as described above.
# [1] = system: isolated pancreatic islets; experiment: Glucose-stimulated insulin secretion in pancreatic islets isolated from treated ZDF rats; format: in vivo, rat; conditions: islets of ZDF rats treated 10 mg/kg oral for 3 weeks
# Description: (§1) Male ZDF fa/fa and ZDF fa+ rats were obtained from Genetic Models (Indianapolis, Ind.), at the age of 6 weeks and used in the experiments at 12 weeks of age, after 3 weeks of oral treatment with vehicle or GW3965 (10 mg/kg). Compounds were given once daily (at 17 h) via oral gavage. At the time of their use, the ZDF fa/fa rats weighed 310-350 g, whereas the age-matched ZDF fa+ rats weighed 245-285 g. ZDF fa+ and ZDF fa/fa animals had free access to diabetogenic chow (Purina 5008). Animals were housed 5 per cage in a temperature and humidity-controlled room with a 12/12-h light-dark cycle. Blood samples were taken 16 h after compound administration via the tail vein and measured on a Konelab 300 (Labsystem) clinical chemistry analyzer. Rat pancreatic islets were prepared by collagenase digestion and density gradient purification. The enzyme collagenase type XI (Sigma Chemical, St. Louis, Mo.) was used for digestion of the pancreas. After an overnight fast, animals were deeply anesthetized and killed. Then, the pancreatic duct was cannulated, and 20 ml of the digestion solution at 37° C. […] Insulin content was measured in the same islets after an overnight alcohol-acid extraction (Ethanol 75%+HCl 0.15 N). Insulin concentrations in the different media were determined by rat insulin ELISA test (Insulin Rat Elite plus, MERCODIA).
# Glut2 mRNA = experiment: Real-time quantitative RT-PCR of Glut2 in isolated islets of treated ZDF rats; format: in vivo, rat; conditions: normalized to 18S rRNA, vehicle ZDF 0.27, fa+ 0.40±0.22
# Description: (§2) Pancreatic and duodenal homeobox gene 1, Pdx1 (Genbank: NM_022852) and facilitated glucose transporter, member 2, Glut2 (Genbank: NM_012879) gene expression were measured by real time quantitative RT-PCR. Total RNAs from fresh isolated rat pancreatic islets were prepared using Rneasy 96 Kit according to the manufacturer's protocol (Qiagen, France), treated with Dnase I to remove contaminating DNA (Stratagene, France), and quantified using the iScript cDNA Synthesis and iQ SYBR Green Supermix kits (Biorad, france). Real-time quantitative RT-PCR was performed using the iCycler Detection System instrument and software (Bio-Rad). As the predicted size of the amplified cDNAs and the Tm values for the primers were similar, uniform amplification conditions were applied (ie. annealing at 60° C.). Specificity of amplified products was monitored by performing melting curves at the end of each amplification. Expression levels were quantified (total RNA units) by generating a six-point serial standard curve. RNA samples were normalized for comparison by determining 18S rRNA levels. In this example, the mRNA expression of PDX1 and Glut2 was determined. As previously described, PDX1 and Glut2 are markers of the regeneration of beta cells. […] PDX1 and Glut2 mRNA expression was increased in islets isolated from GW3965-compared to vehicle-treated ZDF rats. […]
# [2] = system: isolated pancreatic islets; experiment: Insulin content of pancreatic islets isolated from treated ZDF rats; format: in vivo, rat; conditions: 10 mg/kg oral for 3 weeks, vehicle 4.78±0.86, fa+ 27.74±6.85, mean±SEM
# Description: as §1
# PDX1 mRNA = experiment: Real-time quantitative RT-PCR of PDX1 in isolated islets of treated ZDF rats; format: in vivo, rat; conditions: normalized to 18S rRNA, vehicle ZDF 0.17, fa+ 0.38±0.21
# Description: as §2
structure (smiles),measurement,setting,value
O=C(O)Cc1cccc(OCCCN(Cc2cccc(C(F)(F)F)c2Cl)CC(c2ccccc2)c2ccccc2)c1 [GW3965],regeneration of beta cells (formation of new islets),NOD mice,formation of new islets
same,increase of insulin secretion vs vehicle-treated ZDF rat islets,[1]; 3.3 mmol/l glucose,133.8%
same,increase of insulin secretion vs vehicle-treated ZDF rat islets,[1]; 16.7 mmol/l glucose,74.5%
same,Glut2 mRNA expression,Glut2 mRNA,0.55±0.23
same,insulin content of islets,[2],13.05±2.49 ng/islet
same,PDX1 mRNA expression,PDX1 mRNA,0.35±0.11
